Values quoted from earlier work in patent US11345964B2, “BCR-ABL truncation mutations” (Quest Diagnostics Investments LLC, priority 2009, dated 2022).
Where a name gives a salt, the structure may show the parent alone. Read-outs that look alike come from different tables or passages of the source.

Test system: patients with myeloproliferative diseases
Settings: imatinib therapy

## Cc1ccc(NC(=O)c2ccc(CN3CCN(C)CC3)cc2)cc1Nc1nccc(-c2cccnc2)n1 [imatinib, imatinib mesylate]
Accelerated phase
  Primary resistance (failure to achieve any hematologic response) rate: 9%
  Secondary resistance (hematologic recurrence) rate: 32%
Blast phase
  Primary resistance (failure to achieve any hematologic response) rate: 51%
  Secondary resistance (hematologic recurrence) rate: 41%
Chronic phase
  Primary resistance (failure to achieve any hematologic response) rate: 3%
  Secondary resistance (hematologic recurrence) rate: 22%
